Laboratory results from ChEMBL document CHEMBL1201862, “PubChem BioAssay data set” (2004).
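Protocol summary: plate cells (96-well), add compound at 5 concentrations, incubate 48 h, interpolate endpoints linearly. Abbreviation: GI50, concentration required for 50% inhibition of growth.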 Calls of active or inactive are those of the source. Cut-off read from the data, not from the text of the source: active = GI50 up to about 1.1 µM and inactive = higher.

Legend:
Experiment in all cases: NCI tumour cell line growth inhibition, 48 h
[1] = test system: 786-0
[2] = test system: A498
[3] = test system: A549
[4] = test system: ACHN
[5] = test system: BT-549
[6] = test system: CAKI-1
[7] = test system: CCRF-CEM
[8] = test system: COLO 205
[9] = test system: DU-145
[10] = test system: EKVX
[11] = test system: HCC 2998
[12] = test system: HCT-116
[13] = test system: HCT-15
[14] = test system: HL-60
[15] = test system: HOP-62
[16] = test system: HOP-92
[17] = test system: HT-29
[18] = test system: Hs-578T
[19] = test system: IGROV-1
[20] = test system: K562
[21] = test system: KM12
[22] = test system: LOX IMVI
[23] = test system: M14
[24] = test system: MCF7
[25] = test system: MDA-MB-231
[26] = test system: MDA-MB-435
[27] = test system: MDA-N
[28] = test system: MOLT-4
[29] = test system: Malme-3M
[30] = test system: NCI-H226
[31] = test system: NCI-H23
[32] = test system: NCI-H460
[33] = test system: NCI-H522
[34] = test system: NCI/ADR-RES
[35] = test system: OVCAR-3
[36] = test system: OVCAR-4
[37] = test system: OVCAR-5
[38] = test system: OVCAR-8
[39] = test system: PC-3
[40] = test system: RPMI-8226
[41] = test system: RXF 393
[42] = test system: SF-268
[43] = test system: SF-295
[44] = test system: SF-539
[45] = test system: SK-MEL-28
[46] = test system: SK-MEL-2
[47] = test system: SK-MEL-5
[48] = test system: SK-OV-3
[49] = test system: SN12C
[50] = test system: SNB-19
[51] = test system: SNB-75
[52] = test system: SR
[53] = test system: SW-620
[54] = test system: T47D
[55] = test system: TK-10
[56] = test system: U-251
[57] = test system: UACC-257
[58] = test system: UACC-62
[59] = test system: UO-31

With `C=C(C(=O)OC1C(CO)OC(OCC2CC[C@@H]3C[C@]4(OC(=O)C3=C)C(C)=CC(=O)C24)C(O)C1O)[C@@H]1CCC(CO)C2C(=O)C=C(C)[C@@]2(O)C1` (stereo partly drawn) the GI50 [1] was 1.63 µM (inactive), the GI50 [2] was 2.9 µM (inactive) and the GI50 [3] was 4.37 µM (inactive). The GI50 [4] was 1.44 µM (inactive), the GI50 [5] was 1.39 µM (inactive) and the GI50 [6] was 1.36 µM (inactive). For the same molecule, the GI50 [7] was 269 nM (active), the GI50 [8] was 280 nM (active) and the GI50 [9] was 3.61 µM (inactive). For the same molecule, the GI50 [10] was 2.42 µM (inactive), the GI50 [11] was 1.61 µM (inactive) and the GI50 [12] was 1.22 µM (inactive). The GI50 [13] was 631 nM, the GI50 [14] was 592 nM (active) and the GI50 [15] was 9.4 µM (inactive). For the same molecule, the GI50 [16] was 2.63 µM (inactive), the GI50 [17] was 1.73 µM (inactive) and the GI50 [18] was 4.09 µM (inactive). The GI50 [19] was 2.79 µM (inactive), the GI50 [20] was 783 nM (active) and the GI50 [21] was 2.55 µM (inactive). For the same molecule, the GI50 [22] was 2.18 µM (inactive), the GI50 [23] was 2.08 µM (inactive) and the GI50 [24] was 1.16 µM (inactive). For the same molecule, the GI50 [25] was 1.64 µM (inactive), the GI50 [26] was 2.09 µM (inactive) and the GI50 [27] was 1.44 µM (inactive). The GI50 [28] was 693 nM (active), the GI50 [29] was 1.46 µM (inactive) and the GI50 [30] was 6.58 µM (inactive). The GI50 [31] was 1.63 µM (inactive), the GI50 [32] was 3.3 µM (inactive) and the GI50 [33] was 243 nM (active). For the same molecule, the GI50 [34] was 2.19 µM (inactive), the GI50 [35] was 2.02 µM (inactive) and the GI50 [36] was 4.01 µM (inactive). For the same molecule, the GI50 [37] was 2.7 µM (inactive), the GI50 [38] was 1.43 µM (inactive) and the GI50 [39] was 1.54 µM (inactive). For the same molecule, the GI50 [40] was 356 nM (active), the GI50 [41] was 757 nM (active) and the GI50 [42] was 3.4 µM (inactive). For the same molecule, the GI50 [43] was 17.1 µM (inactive), the GI50 [44] was 0.482 µM (active) and the GI50 [45] was 3.34 µM (inactive). The GI50 [46] was 2.47 µM (inactive), the GI50 [47] was 1.29 µM (inactive) and the GI50 [48] was 20.4 µM (inactive). For the same molecule, the GI50 [49] was 1.32 µM (inactive), the GI50 [50] was 16.4 µM (inactive) and the GI50 [51] was 13.8 µM (inactive). The GI50 [52] was 646 nM (active), the GI50 [53] was 603 nM (active) and the GI50 [54] was 2.55 µM (inactive). For the same molecule, the GI50 [55] was 3.07 µM (inactive), the GI50 [56] was 4.68 µM (inactive) and the GI50 [57] was 1.84 µM (inactive). For the same molecule, the GI50 [58] was 1.62 µM (inactive) and the GI50 [59] was 1.76 µM (inactive).
For `CC(C)C(Cl)CC/C(CBr)=C(\Cl)CCl` (stereo not drawn), the GI50 [1] was 2.22 µM (inactive), the GI50 [2] was 19.2 µM (inactive) and the GI50 [3] was 17.8 µM (inactive). The GI50 [4] was 16 µM (inactive), the GI50 [5] was 2.05 µM (inactive) and the GI50 [6] was 7.08 µM (inactive). For the same molecule, the GI50 [7] was 225 nM (active), the GI50 [8] was 5460 nM (inactive) and the GI50 [9] was 13.4 µM (inactive). For the same molecule, the GI50 [10] was 19.6 µM (inactive), the GI50 [11] was 13.7 µM (inactive) and the GI50 [12] was 2.86 µM (inactive). The GI50 [13] was 2890 nM, the GI50 [14] was 540 nM (active) and the GI50 [15] was 17.1 µM (inactive). For the same molecule, the GI50 [16] was 2.25 µM (inactive), the GI50 [17] was 4.75 µM (inactive) and the GI50 [18] was 2.9 µM (inactive). The GI50 [19] was 1.77 µM (inactive), the GI50 [20] was 723 nM (active) and the GI50 [21] was 3.21 µM (inactive). For the same molecule, the GI50 [22] was 0.24 µM (active), the GI50 [23] was 1.85 µM (inactive) and the GI50 [24] was 0.646 µM (active). For the same molecule, the GI50 [25] was 3.3 µM (inactive), the GI50 [26] was 3.2 µM (inactive) and the GI50 [27] was 2.05 µM (inactive). For the same molecule, the GI50 [28] was 1730 nM (inactive), the GI50 [29] was 6.71 µM (inactive) and the GI50 [30] was 6.7 µM (inactive). The GI50 [31] was 2.67 µM (inactive), the GI50 [32] was 13.4 µM (inactive) and the GI50 [33] was 794 nM (active). The GI50 [34] was 10.9 µM (inactive), the GI50 [35] was 4.72 µM (inactive) and the GI50 [36] was 2.27 µM (inactive). The GI50 [37] was 15.4 µM (inactive), the GI50 [38] was 2 µM (inactive) and the GI50 [39] was 10.7 µM (inactive). For the same molecule, the GI50 [40] was 2270 nM (inactive), the GI50 [41] was 2800 nM (inactive) and the GI50 [42] was 7.18 µM (inactive). The GI50 [43] was 16.3 µM (inactive), the GI50 [44] was 15.7 µM (inactive) and the GI50 [45] was 3.37 µM (inactive). The GI50 [46] was 2.1 µM (inactive), the GI50 [47] was 2.02 µM (inactive) and the GI50 [48] was 6.1 µM (inactive). For the same molecule, the GI50 [49] was 4.73 µM (inactive), the GI50 [50] was 14.6 µM (inactive) and the GI50 [51] was 2.01 µM (inactive). For the same molecule, the GI50 [52] was 1690 nM (inactive), the GI50 [53] was 1800 nM (inactive) and the GI50 [54] was 1.5 µM (inactive). For the same molecule, the GI50 [55] was 14.5 µM (inactive), the GI50 [56] was 10.6 µM (inactive) and the GI50 [57] was 2.79 µM (inactive). For the same molecule, the GI50 [58] was 2.24 µM (inactive) and the GI50 [59] was 16.9 µM (inactive).
